Here are results for one compound from US20250215071A1, “Novel Mcl-1 inhibitor and combination of Mcl-1 and a BH3 mimetic, such as a Bcl-2 inhibitor” (NETRIS PHARMA, priority 2022, published 2025).

This assay has as its system HeLa UNC5B cells. The experiment in a line: UNC5B-induced DNA fragmentation in HeLa UNC5B cells. In kind it is cell-based, Human. Conditions: doxycycline-induced UNC5B; 18 hours. Here is the method: FIG. 2. CRISPR-Cas9 screening identifies genes and molecular pathways involved in UNC5B-induced cell death. Related to FIG. 1. (A): UNC5B induction upon treatment with doxycycline. Stable HCT116 cells, inducible for UNC5B, were treated with the indicated concentrations of doxycycline (Dox). 24 hours later, protein levels of FLAG-UNC5B and GAPDH, used as housekeeping gene, were assessed by western blot. (B): UNC5B induction upon treatment with doxycycline on Hela cells. Stable Hela cells inducible for UNC5B (HeLa UNC5B) were treated with the indicated doses of Dox for 18 hours. Protein levels of His-UNC5B and β-actin, used as housekeeping gene, were measured by western blot. (C,D,E): Induction of UNC5B triggers apoptotic cell death in HCT116 cells. Stable HCTT16 cells inducible for human UNC5B were treated with Dox. To assess cell death, propidium iodide (PI) incorporation was followed in real-time up to 36 hours, using an Incucyte Zoom technology (n=3, ** p<0.01, Kolmogorov Smirnov test) (C). Apoptosis was assessed 18 hours after Dox treatment by DNA fragmentation through flow cytometry ([…] (D) and by caspase-3 activity (E), quantified by fluorometric detection kit (n=3, *p<0.05, ** p<0.01, *** p<0.001, Ordinary two-way ANOVA). Values are given as means±SEM. (F): Caspase inhibition rescues apoptosis triggered by UNC5B. HeLa UNC5B cells were treated with Dox and the pan-caspase inhibitor […] (QVD). 18 hours later, DNA fragmentation was evaluated by flow cytometry (n=3, **** p<0.0001, ordinary two-way ANOVA with Šidák's multiple comparisons test). Values are given as means±SEM. […] The number of guides showing an increase in reads compared to control condition is shown for each gene.
FIG. 4. […] 18 hours after treatment, apoptosis was measured by DNA fragmentation (A) and caspase-3 activity (B) (n=3-4, **** p<0.0001, ordinary two-way ANOVA with Tukey's multiple comparisons test). […] Protein levels of Mcl-1, Bcl-2 and Bcl-XL, as well as of UNC5B and B-actin, used as housekeeping gene, were evaluated by western blot. […]

In the case of `CC(C)C[C@H](NC(=O)[C@H](Cc1ccccc1)NC(=O)c1cnccn1)B(O)O` [bortezomib], the “UNC5B-induced apoptosis (DNA fragmentation)” value is “suppressed”.
